How the values were obtained:
786-0 cells = details: human
physchem [1] = details: buffer
[2] = mouse; for Plasma stab. % remaning at 3 hrs: Balb/c, pH 7.4
[3] = system: VSVΔ51-GFP in CT26 murine colon cancer tumors; type: cell-based, mouse
[4] = system: VSVΔ51-GFP in normal mouse brain, lung and spleens
[5] = female, Balb/c, mouse, in vivo
[6] = system: ICPO-null HSV-N212eGFP in 786-0 cells; type: cell-based, human; details: MOI 0.01, 48 h after infection
MG1-eGFP in 786-0 cells = type: cell-based, human
VSVΔ51 = details: cited from earlier work
[7] = system: oncolytic HSV-1 expressing GFP in 786-0 cancer cells; type: cell-based, human
physchem [8] = details: buffer, pH 7.4
VSVΔ51 in 786-0 cells = type: cell-based, human
[9] = system: VSVΔ51-FLuc in CT26 tumors; set-up: species or system Balb/c mice; details: mouse, in vivo

With `CCC1=C(Cl)C(=O)N(Cc2ccccc2)C1O` (centres unmarked) [Compound 18] the LD50 (786-0 cells) was >360 µM.
In the case of `O=C1C(Cl)=C(Cl)CN1Cc1ccccc1` [Compound 11], the half-life (physchem [1]) is reported as 64 min, the “Plasma stab. % remaning at 3 hrs” value [2] is reported as 42.5 ± 9.6% and the LD50 (786-0 cells) is reported as 332 µM.
For `O=C1OCC(Cl)=C1Cl` [Compound 5, 3,4-Dichloro-5H-furan-2-one], the half-life (physchem [1]) was < 5 min, the “Plasma stab. % remaning at 3 hrs” value [2] was 0% and the LD50 (786-0 cells) was 41 µM.
With `O=C1OC(c2ccccc2)C(NCc2ccccc2)=C1Cl` (centres unmarked) [Compound 3] the “Plasma stab. % remaning at 3 hrs” value [2] was 65.6 ± 6.5% and the LD50 (786-0 cells) was 140 µM.
With `C#CCOC1OC(=O)C(Cl)=C1Cl` (centres unmarked) [Compound 7] the half-life (physchem [1]) was < 5 min, the “Plasma stab. % remaning at 3 hrs” value [2] was 0% and the LD50 (786-0 cells) was 52 µM.
`O=C1C(Cl)=C(c2ccccc2)C(O)N1Cc1ccccc1` (centres unmarked) [Compound 19] showed an LD50 (786-0 cells) of 250 µM.
For `O=C1NC(O)C(Cl)=C1Cl` (centres unmarked) [Compound 9], the half-life (physchem [1]) was 117 min, the “Plasma stab. % remaning at 3 hrs” value [2] was 0% and the “stability in the plasma assay” value [2] was “remarkably improved stability”. It also gave an LD50 (786-0 cells) of 148 µM.
In the case of `O=C1C(Cl)=C(Cl)C(O)N1Cc1ccc(C(F)(F)F)cc1` (centres unmarked) [Compound 40, 3,4-dichloro-5-hydroxy-1-(4-(trifluoromethyl)benzyl)-1H-pyrrol-2(5H)-one], the “VSVΔ51-GFP titers / replication in tumor specimens” value [3] is reported as “enhances replication in tumors”, the half-life (physchem [1]) is reported as 32 min and the “impact on VSVΔ51 in normal tissue specimens” value [4] is reported as “increases infection and replication in brain tissue”. The “Plasma stab. % remaning at 3 hrs” value [2] was 15.3 ± 2.5% and the LD50 (786-0 cells) was 36 µM.
For `CC(=O)NCCSC1=C(Cl)C(=O)N(Cc2ccccc2)C1O` (centres unmarked) [Compound 21], the “Plasma stab. % remaning at 3 hrs” value [2] was 102.7 ± 10.8% and the LD50 (786-0 cells) was >90 µM.
In the case of `O=C1OC(c2ccccc2)C(Cl)=C1Cl` (centres unmarked) [Compound 1, 3,4-dichloro-5-phenyl-2,5-dihydrofuran-2-one, reference compound], the “dose at which toxicity starts” value ([5]; ip) is reported as ≥ 10 mg/kg, the “GFP counts, HSV-N212eGFP” value [6] is reported as “increased GFP counts” and the “GFP counts, MG1-eGFP” value (MG1-eGFP in 786-0 cells) is reported as “increased GFP counts”. The “VSVΔ51-GFP titers / replication in tumor specimens” value [3] was “enhanced”, the “increase of virus output” value (VSVΔ51) was ≤ 1,000 fold and the half-life (physchem [1]) was < 5 min. For the same compound, the “Plasma stab. % remaning at 3 hrs” value [2] was 0%, the “growth of oncolytic HSV-1 expressing GFP” value [7] was “increased growth” and the half-life (physchem [8]) was 28.8 min. The LD50 (786-0 cells) was 79 µM and the “enhancement of viral titers after pre-incubation of compound in media” value (VSVΔ51 in 786-0 cells) was “did not lead to robust enhancement of viral titers”.
With `O=C1C=CC(O)N1Cc1ccccc1` (centres unmarked) [Compound 16] the “Plasma stab. % remaning at 3 hrs” value [2] was 98.2 ± 3.7% and the LD50 (786-0 cells) was >360 µM.
For `O=c1[nH]n(-c2ccccc2)c(Cl)c1Cl` [Compound 8], the “Plasma stab. % remaning at 3 hrs” value [2] was 88.3 ± 9.3% and the LD50 (786-0 cells) was >180 µM.
In the case of `O=C1C(Cl)=C(Cl)C(O)N1C1CC1` (centres unmarked) [Compound 25, 3,4-dichloro-1-cyclopropyl-5-hydroxy-1H-pyrrol-2(5H)-one], the half-life (physchem [1]) is reported as 53 min, the “Plasma stab. % remaning at 3 hrs” value [2] is reported as 54.8 ± 3.6% and the LD50 (786-0 cells) is reported as 127 µM.
In the case of `O=C1C(Cl)=C(Cl)C(O)N1CCc1ccccc1` (centres unmarked) [Compound 29, 3,4-dichloro-5-hydroxy-1-phenethyl-1H-pyrrol-2(5H)-one], the “GFP counts, HSV-N212eGFP” value [6] is reported as “increased GFP counts”, the “GFP counts, MG1-eGFP” value (MG1-eGFP in 786-0 cells) is reported as “increased GFP counts” and the half-life (physchem [1]) is reported as 74 min. The “Plasma stab. % remaning at 3 hrs” value [2] was 57.6 ± 6.6% and the LD50 (786-0 cells) was 74 µM.
With `CC1=C(C)C(O)N(Cc2ccccc2)C1=O` (centres unmarked) [Compound 17] the “Plasma stab. % remaning at 3 hrs” value [2] was 82.0 ± 10.2% and the LD50 (786-0 cells) was >360 µM.
With `O=C1c2ccccc2C(O)N1Cc1ccccc1` (centres unmarked) [Compound 20] the “Plasma stab. % remaning at 3 hrs” value [2] was 102.9 ± 1.6% and the LD50 (786-0 cells) was >360 µM.
With `O=C1C(Cl)=C(Cl)C(=O)N1Cc1ccccc1` [Compound 14] the half-life (physchem [1]) was < 5 min, the “Plasma stab. % remaning at 3 hrs” value [2] was 70.2 ± 8.4% and the LD50 (786-0 cells) was 104 µM.
In the case of `O=C1C(Cl)=C(Cl)C(O)(c2ccccc2)N1Cc1ccccc1` (centres unmarked) [Compound 15], the half-life (physchem [1]) is reported as 340 min, the “Plasma stab. % remaning at 3 hrs” value [2] is reported as 14.9 ± 7.1% and the LD50 (786-0 cells) is reported as 66 µM.
With `COC1C(Cl)=C(Cl)C(=O)N1Cc1ccccc1` (centres unmarked) [Compound 12] the half-life (physchem [1]) was 118 min, the “Plasma stab. % remaning at 3 hrs” value [2] was 47.6 ± 1.4% and the LD50 (786-0 cells) was 206 µM.
In the case of `CC(C)CNC1=C(Cl)C(=O)OC1c1ccccc1` (centres unmarked) [Compound 4], the “Plasma stab. % remaning at 3 hrs” value [2] is reported as 0% and the LD50 (786-0 cells) is reported as 90 µM.
With `COC1OC(=O)C(Cl)=C1Cl` (centres unmarked) [Compound 6] the half-life (physchem [1]) was < 5 min, the “Plasma stab. % remaning at 3 hrs” value [2] was 0% and the LD50 (786-0 cells) was 73 µM.
For `O=C1OC(c2ccccc2)C(Br)=C1Br` (centres unmarked) [Compound 2], the half-life (physchem [1]) was < 5 min, the “Plasma stab. % remaning at 3 hrs” value [2] was 0% and the LD50 (786-0 cells) was 87 µM.
With `CC(=O)OC1C(Cl)=C(Cl)C(=O)N1Cc1ccccc1` (centres unmarked) [Compound 13] the half-life (physchem [1]) was 21 min, the “Plasma stab. % remaning at 3 hrs” value [2] was 0% and the LD50 (786-0 cells) was 61 µM.
With `O=C1C(Cl)=C(Cl)C(O)N1Cc1ccccc1` (stereo not drawn) [Compound 10, α,β-dichloro-γ-hydroxy-N-benzyl-crotonic lactam] the “dose up to which well tolerated” value ([5]; ip) was ≤ 50 mg/kg, the “GFP counts, HSV-N212eGFP” value [6] was “increased GFP counts” and the “GFP counts, MG1-eGFP” value (MG1-eGFP in 786-0 cells) was “increased GFP counts”. For the same compound, the half-life (physchem [1]) was 32 min, the “Plasma stab. % remaning at 3 hrs” value [2] was 19.8 ± 0.4% and the “stability in the plasma assay” value [2] was “remarkably improved stability”. For the same compound, the “growth of oncolytic HSV-1 expressing GFP” value [7] was “increased growth” and the LD50 (786-0 cells) was 67 µM.
For `O=C1C(Cl)=C(Cl)C(O)N1CCN1CCOCC1` (centres unmarked) [Compound 28, 3,4-dichloro-5-hydroxy-1-(2-morpholinoethyl)-1H-pyrrol-2(5H)-one], the “tolerated dose relative to parent compound 1” value [5] was > 10 ×, the “dose up to which well tolerated” value ([5]; ip) was “up to 100 mg/kg” and the “GFP counts, HSV-N212eGFP” value [6] was “increased GFP counts”. For the same compound, the “tumor-specific viral replication (luciferase activity, IVIS)” value [9] was “significantly enhanced”, the “GFP counts, MG1-eGFP” value (MG1-eGFP in 786-0 cells) was “increased GFP counts” and the “enhancement of VSVΔ51 output in tumor specimens” value [3] was ~100 fold. For the same compound, the half-life (physchem [1]) was 96 min, the “impact on VSVΔ51 in normal tissue specimens” value [4] was “little to no impact” and the “Plasma stab. % remaning at 3 hrs” value [2] was 38.9 ± 5.2%. It also gave an LD50 (786-0 cells) of 153 µM.

Reference: patent publication US20180305345A1 (priority 2015, published 2018)
